Data published in publication PMC11062899, “De novo development of small cyclic peptides that are orally bioavailable” (Nature Chemical Biology, 2023).
Values joined by “and” are separate entries in the source; they are usually repeats but may differ in a detail not shown here. Equal entries are not always repeated. Where two headings read alike, the source gives them in different places.

How the values were obtained:
[1] = Metabolic stability in rat liver microsomes (RLMs); settings: for half-life at 10 μM / microsomal CLint at 10 μM: rat
[2] = Passive artificial membrane permeability (PAMPA); settings: for PAMPA permeability: % permeability: acceptor concentration relative to equilibrium;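 as to PAMPA permeability: % permeability: acceptor concentration relative to equilibrium after 12–18 h at 50 µM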
human α-thrombin = human α-thrombin (Homo sapiens, UniProt P00734); assay: Protease inhibition, Ki for human α-thrombin (fluorogenic substrate Z-Gly-Gly-Arg-AMC); format: biochemical; settings: for slope normalized to DMSO, human alpha thrombin inhibition: replicates R1-R3
Summary of the method: (§1)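 Ki derived through Cheng–Prusoff from IC50s (four-parameter logistic fit) against activity of peptide-free controls. Product fluorescence was read every 3 min over 30 min at 25 °C, substrate Z-Gly-Gly-Arg-AMC at 50 μM. Enzyme was 2 nM human or 3 nM rat α-thrombin, pH 7.4 buffer.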

rat α-thrombin = molecular target: T1, rat α-thrombin (Rattus norvegicus, UniProt P18292); assay: Protease inhibition, Ki for rat α-thrombin (fluorogenic substrate Z-Gly-Gly-Arg-AMC); format: biochemical; settings: for slope normalized to DMSO, rat alpha thrombin inhibition: replicates R1-R3
T1 construct: rat α-thrombin (Molecular Innovations) were used at final concentrations of 2 nM and 3 nM; purchased Molecular Innovations
Summary of the method: as §1

[3] = rat liver microsomes, individual replicates R1-R3, incubation volume 400 ul, protein 0.5 mg/ml

## C[C@]12CC[C@H]3[C@@H](CCC4=CC(=O)CC[C@@]43C)[C@@H]1CC[C@@H]2O [Testosterone, reference compound]
[1]; rat liver microsomes, 0 min incubation, LCMS TIC, individual replicates R1-R3, protein 0.5 mg/ml, Ox (+16)/(+32), deMe (-14)/(-28) = mass adducts (metabolites)
  TIC value at 0 min: 365657 (2×) and 448878
[1]; rat liver microsomes, 5 min incubation, LCMS TIC, individual replicates R1-R3, protein 0.5 mg/ml
  TIC value at 5 min: 76968 and 89225 and 92782
[1]; rat liver microsomes, 15 min incubation, LCMS TIC, individual replicates R1-R3, protein 0.5 mg/ml
  TIC value at 15 min: 0
[1]; rat liver microsomes, 30 min incubation, LCMS TIC, individual replicates R1-R3, protein 0.5 mg/ml
  TIC value at 30 min: 0
[1]; rat liver microsomes, 60 min incubation, LCMS TIC, individual replicates R1-R3, protein 0.5 mg/ml
  TIC value at 60 min: 0
[1]; rat liver microsomes, individual replicates R1-R3
  Half Life: 2.29 min and 2.19 min
[1]; [3]
  RLM CL: 606.56 ul/min/mg protein and 632.01 ul/min/mg protein
[1]; microsomes, pH 7.4, Half Life Mean, rat liver microsomes, mean of R1-R3
  half-life at 10 μM: 2.23 min
[1]; microsomes, pH 7.4, Half Life, rat liver microsomes, individual replicates R1-R3
  half-life at 10 μM: 2.21 min
[1]; microsomes, pH 7.4, Metabolic stability: Half life T1/2 (min), RLMs, mean and SD, three measurements
  half-life at 10 μM: 2.2 ± 0.1 min
[1]; microsomes, pH 7.4, Metabolic stability: RLM CL (ul/min/mg), RLMs, mean and SD, three measurements
  microsomal CLint at 10 μM: 620 ± 10 µL/min/mg
[1]; microsomes, pH 7.4, RLM CL Mean, rat liver microsomes, mean of R1-R3
  microsomal CLint at 10 μM: 622 µL/min/mg
[1]; microsomes, pH 7.4, RLM CL, rat liver microsomes, individual replicates R1-R3, incubation volume 400 ul, protein 0.5 mg/ml
  microsomal CLint at 10 μM: 626 µL/min/mg
[2]; 50 μM, 12–18 h
  PAMPA permeability: % permeability: 88.2 ± 1.1%

## CC(=O)CC(c1ccccc1)c1c(O)c2ccccc2oc1=O (stereo not drawn) [Warfarin, warfarin, reference compound]
[1]; RLM CL, replicate R1
  CL (ul/min/mg protein) R1: 3.761 ul/min/mg protein
[1]; [3]
  RLM CL: 2.64 ul/min/mg protein
[1]; rat liver microsomes, pH 7.4
  microsomal CLint at 10 μM: 2 µL/min/mg
[2]; 50 μM, 12–18 h
  PAMPA permeability: % permeability: 50 ± 5%
[2]; PAMPA, pH 7.4, PAMPA permeability: logPapp, 50 μM, 12–18 h
  Papp at 50 μM: 4.57 ×10⁻⁶ cm/s
[2]; PAMPA, pH 7.4, apparent permeability logPapp (PAMPA), 50 μM, pH 7.4, 12–18 h
  Papp at 50 μM: 5.01 ×10⁻⁶ cm/s
[2]; PAMPA, average of R1-R3
  Permeability% Average: 50.0%
[2]; PAMPA, replicate R1, TIC of top well sample relative to sample at theoretical equilibrium
  Permeability% R1: 48.28%
[2]; PAMPA, replicate R3, TIC of top well sample relative to sample at theoretical equilibrium
  Permeability% R3: 55.67%

## O=C1C[C@H]2CCCN2C(=O)[C@H](Cc2ccccc2)NC(=O)[C@@H](NC(=O)c2ccc(Cl)cc2F)CCC=CCCCCN1 [compound 45]
Human α-thrombin; average of R1-R3, read-out: Ki Average, human alpha thrombin inhibition
  Ki: 204 nM
Human α-thrombin; individual replicates R1-R3, read-out: IC50, human alpha thrombin inhibition
  IC50: 273 nM and 252 nM and 268 nM
Human α-thrombin; individual replicates R1-R3, read-out: Ki, human alpha thrombin inhibition
  Ki: 210 nM (2×) and 194 nM (2×) and 207 nM (2×)
Human α-thrombin; peptide 1.00E+02 uM
  slope normalized to DMSO, human alpha thrombin inhibition: 11.3 and 11.6 and 10.6
Human α-thrombin; peptide 1.19E-05 uM
  slope normalized to DMSO, human alpha thrombin inhibition: 102.6 and 106.2 and 105.7
Human α-thrombin; peptide 1.22E-02 uM
  slope normalized to DMSO, human alpha thrombin inhibition: 98.0 and 95.4 and 97.5
Human α-thrombin; peptide 1.25E+01 uM
  slope normalized to DMSO, human alpha thrombin inhibition: 13.9 and 11.8 and 11.3
Human α-thrombin; peptide 1.53E-03 uM
  slope normalized to DMSO, human alpha thrombin inhibition: 101.7 and 103.3 and 104.5
Human α-thrombin; peptide 1.56E+00 uM
  slope normalized to DMSO, human alpha thrombin inhibition: 26.6 and 25.5 (2×)
Human α-thrombin; peptide 1.91E-04 uM
  slope normalized to DMSO, human alpha thrombin inhibition: 103.0 and 99.2 and 105.0
Human α-thrombin; peptide 1.95E-01 uM
  slope normalized to DMSO, human alpha thrombin inhibition: 64.4 and 63.8 and 63.5
Human α-thrombin; peptide 2.38E-05 uM
  slope normalized to DMSO, human alpha thrombin inhibition: 102.9 and 103.4 and 104.0
Human α-thrombin; peptide 2.44E-02 uM
  slope normalized to DMSO, human alpha thrombin inhibition: 93.3 and 91.7 and 93.0
Human α-thrombin; peptide 2.50E+01 uM
  slope normalized to DMSO, human alpha thrombin inhibition: 12.2 and 11.9 and 11.6
Human α-thrombin; peptide 3.05E-03 uM
  slope normalized to DMSO, human alpha thrombin inhibition: 101.3 and 101.9 and 102.4
Human α-thrombin; peptide 3.12E+00 uM
  slope normalized to DMSO, human alpha thrombin inhibition: 19.4 (2×) and 18.4
Human α-thrombin; peptide 3.81E-04 uM
  slope normalized to DMSO, human alpha thrombin inhibition: 103.1 and 102.3 and 104.4
Human α-thrombin; peptide 3.91E-01 uM
  slope normalized to DMSO, human alpha thrombin inhibition: 49.6 and 45.7 and 49.0
Human α-thrombin; peptide 4.77E-05 uM
  slope normalized to DMSO, human alpha thrombin inhibition: 101.9 and 103.1 and 105.2
Human α-thrombin; peptide 4.88E-02 uM
  slope normalized to DMSO, human alpha thrombin inhibition: 85.5 and 84.9 and 86.4
Human α-thrombin; peptide 5.00E+01 uM
  slope normalized to DMSO, human alpha thrombin inhibition: 11.7 and 11.4 and 7.8
Human α-thrombin; peptide 6.10E-03 uM
  slope normalized to DMSO, human alpha thrombin inhibition: 99.7 and 99.5 and 102.0
Human α-thrombin; peptide 6.25E+00 uM
  slope normalized to DMSO, human alpha thrombin inhibition: 15.9 and 15.6 and 14.9
Human α-thrombin; peptide 7.63E-04 uM
  slope normalized to DMSO, human alpha thrombin inhibition: 102.4 (2×) and 103.3
Human α-thrombin; peptide 7.81E-01 uM
  slope normalized to DMSO, human alpha thrombin inhibition: 36.6 and 35.0 and 35.1
Human α-thrombin; peptide 9.54E-05 uM
  slope normalized to DMSO, human alpha thrombin inhibition: 103.4 and 102.3 and 101.0
Human α-thrombin; peptide 9.77E-02 uM
  slope normalized to DMSO, human alpha thrombin inhibition: 76.3 and 76.5 and 77.1
[2]; 50 μM, 12–18 h
  PAMPA permeability: % permeability: 66 ± 14%
[2]; 50 μM, 12 h (Fig. 6d)
  Permeability% (single replicates R1–R3): 56.67% and 58.98% and 81.87%
  Permeability% Average: 65.8%
[2]; PAMPA, pH 7.4
  Papp at 50 μM: 10.7 ×10⁻⁶ cm/s
Rat α-thrombin; average of R1-R3, read-out: Ki Average, rat alpha thrombin inhibition
  Ki: 36.4 nM
Rat α-thrombin; individual replicates R1-R3, read-out: IC50, rat alpha thrombin inhibition
  IC50: 67 nM and 66.1 nM and 64.2 nM
Rat α-thrombin; individual replicates R1-R3, read-out: Ki, rat alpha thrombin inhibition
  Ki: 37.1 nM and 36.6 nM and 35.6 nM
Rat α-thrombin; peptide 1.00E+02 uM
  slope normalized to DMSO, rat alpha thrombin inhibition: 6.9 and 7.8 and 7.9
Rat α-thrombin; peptide 1.19E-05 uM
  slope normalized to DMSO, rat alpha thrombin inhibition: 99.4 and 99.8 and 100.7
Rat α-thrombin; peptide 1.22E-02 uM
  slope normalized to DMSO, rat alpha thrombin inhibition: 80.5 and 81.1 and 80.7
Rat α-thrombin; peptide 1.25E+01 uM
  slope normalized to DMSO, rat alpha thrombin inhibition: 8.5 and 8.3 (2×)
Rat α-thrombin; peptide 1.53E-03 uM
  slope normalized to DMSO, rat alpha thrombin inhibition: 95.1 and 94.7 (2×)
Rat α-thrombin; peptide 1.56E+00 uM
  slope normalized to DMSO, rat alpha thrombin inhibition: 12.6 and 12.3 and 12.5
Rat α-thrombin; peptide 1.91E-04 uM
  slope normalized to DMSO, rat alpha thrombin inhibition: 97.1 (2×) and 95.3
Rat α-thrombin; peptide 1.95E-01 uM
  slope normalized to DMSO, rat alpha thrombin inhibition: 34.2 and 33.8 and 33.2
Rat α-thrombin; peptide 2.38E-05 uM
  slope normalized to DMSO, rat alpha thrombin inhibition: 93.5 and 98.9 and 98.6
Rat α-thrombin; peptide 2.44E-02 uM
  slope normalized to DMSO, rat alpha thrombin inhibition: 71.8 and 70.1 and 71.0
Rat α-thrombin; peptide 2.50E+01 uM
  slope normalized to DMSO, rat alpha thrombin inhibition: 8.3 and 8.0 and 8.8
Rat α-thrombin; peptide 3.05E-03 uM
  slope normalized to DMSO, rat alpha thrombin inhibition: 90.8 and 91.5 and 91.2
Rat α-thrombin; peptide 3.12E+00 uM
  slope normalized to DMSO, rat alpha thrombin inhibition: 10.1 (2×) and 10.3
Rat α-thrombin; peptide 3.81E-04 uM
  slope normalized to DMSO, rat alpha thrombin inhibition: 97.2 and 95.5 and 95.9
Rat α-thrombin; peptide 3.91E-01 uM
  slope normalized to DMSO, rat alpha thrombin inhibition: 22.7 and 22.8 and 22.5
Rat α-thrombin; peptide 4.77E-05 uM
  slope normalized to DMSO, rat alpha thrombin inhibition: 97.5 and 97.4 and 98.2
Rat α-thrombin; peptide 4.88E-02 uM
  slope normalized to DMSO, rat alpha thrombin inhibition: 57.9 and 58.1 and 57.0
Rat α-thrombin; peptide 5.00E+01 uM
  slope normalized to DMSO, rat alpha thrombin inhibition: 8.1 (2×) and 8.0
Rat α-thrombin; peptide 6.10E-03 uM
  slope normalized to DMSO, rat alpha thrombin inhibition: 75.2 and 85.9 and 86.8
Rat α-thrombin; peptide 6.25E+00 uM
  slope normalized to DMSO, rat alpha thrombin inhibition: 9.3 (2×) and 10.3
Rat α-thrombin; peptide 7.63E-04 uM
  slope normalized to DMSO, rat alpha thrombin inhibition: 94.5 (2×) and 95.4
Rat α-thrombin; peptide 7.81E-01 uM
  slope normalized to DMSO, rat alpha thrombin inhibition: 16.5 and 16.1 and 16.2
Rat α-thrombin; peptide 9.54E-05 uM
  slope normalized to DMSO, rat alpha thrombin inhibition: 96.4 and 97.0 and 98.4
Rat α-thrombin; peptide 9.77E-02 uM
  slope normalized to DMSO, rat alpha thrombin inhibition: 46.4 and 46.1 and 46.7
